Experimental data reported in patent publication US6783949B1, “Processes for determining whether a test substance contains lipases or lipase inhibitors” (Aventis Pharma Deutschland GmbH, priority 1999, dated 2004).

Molecular target: T1, HSL (Rattus norvegicus, UniProt P15304)
T1 construct: The partially purified HSL can be stored at −70° C. for 4 to 6 weeks; from tissue; host or cells: rat epididymal fat cells (male Wistar rats)
T1 sequence (P15304 1-768 isoform P15304-2): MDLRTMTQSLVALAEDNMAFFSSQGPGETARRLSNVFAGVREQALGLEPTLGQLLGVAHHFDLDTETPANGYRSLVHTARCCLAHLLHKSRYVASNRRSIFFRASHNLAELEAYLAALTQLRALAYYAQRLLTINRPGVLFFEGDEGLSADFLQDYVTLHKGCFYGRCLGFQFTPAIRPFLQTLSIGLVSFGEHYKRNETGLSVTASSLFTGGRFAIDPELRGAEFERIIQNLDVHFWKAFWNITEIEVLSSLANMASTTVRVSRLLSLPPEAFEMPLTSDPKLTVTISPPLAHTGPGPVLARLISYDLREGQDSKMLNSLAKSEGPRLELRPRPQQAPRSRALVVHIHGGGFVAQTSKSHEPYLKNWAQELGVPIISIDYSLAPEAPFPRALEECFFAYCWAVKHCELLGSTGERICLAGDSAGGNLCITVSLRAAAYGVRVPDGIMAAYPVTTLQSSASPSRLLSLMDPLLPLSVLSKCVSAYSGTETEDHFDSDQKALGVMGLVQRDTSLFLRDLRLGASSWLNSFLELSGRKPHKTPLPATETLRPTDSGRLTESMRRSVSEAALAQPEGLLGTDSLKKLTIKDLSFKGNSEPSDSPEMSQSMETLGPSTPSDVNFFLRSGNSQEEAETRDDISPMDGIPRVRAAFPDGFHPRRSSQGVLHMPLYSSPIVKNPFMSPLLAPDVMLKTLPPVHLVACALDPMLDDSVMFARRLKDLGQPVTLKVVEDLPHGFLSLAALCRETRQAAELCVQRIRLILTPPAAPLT
Assay: Indirect NAG assay (extinction increase at 481 nm)
Assay type: biochemical
Method: A typical reaction is carried out at 30° C. for 60 min, for example in 1.5 ml Eppendorf vessels or 96-hole plates. […] 180 μl of the substrate solution (20 μg/ml of phosphatidylcholine, 10 μg/ml of phosphatidylinositol, 50 μg/ml of NAG in assay buffer) are added. After a preincubation for 15 min at 30° C., 20 μl of HSL in assay buffer are pipetted in and the extinction is immediately measured (see above) at 481 nm in a cuvette photometer (0.5 ml cuvette) or microtiter plate reader. After a certain incubation time, which is variable and depends on the chosen enzyme concentration and can be between 2 and 240 minutes, in this case incubation at 30° C. for 60 min, the extinction is measured again. The increase in the extinction in the yellow region, in this case at 481 nm, is a measure of the enzyme activity.
Isolated rat fat cells are obtained from epididymal fatty tissue from untreated male rats (Wistar, 220-250 g) by collagenase treatment according to published processes. The fat cells from 10 rats are washed three times by flotation with 50 ml each of homogenization buffer ([…], pH 7.4, 0.25 M sucrose, 1 mM ethylenediamine-N,N,N′,N′-tetraacetic acid (EDTA), 1 mM dithiothreitol (DTT), 10 μg/ml of leupeptin, 10 μg/ml of antipain, 20 μg/ml of pepstatin) and finally taken up in 10 ml of homogenization buffer. The fat cells are homogenized in a Teflon-in-glass homogenizer (Braun-Melsungen) by 10 strokes at 1500 rpm and 15° C. The homogenizate is centrifuged (Sorvall SM24 tubes, 5000 rpm, 10 min, 4° C.). The […] between the overlying fatty layer and the pellet is removed and the centrifugation is repeated. The […] resulting from this is centrifuged again (Sorvall SM24 tubes, 20,000 rpm, 45 min, 4° C.). […] After incubation for 60 min at 4° C. (shake at intervals of 15 min), the batch is centrifuged (Sorvall SM24 tubes, 3000 rpm, 10 min, 4° C.). The supernatant is brought to pH 5.2 by addition of glacial acetic acid and incubated at 4° C. for 30 min. […] The suspension is dialyzed overnight at 4° C. against 25 mM TRIS/HCl, pH 7.4, 50% glycerol, 1 mM DTT, and 10 μg/ml of leupeptin, pepstatin, and antipain and then applied to a hydroxylapatite column (0.1 g per 1 ml of suspension, equilibrated with 10 mM potassium phosphate, pH 7.0, 30% glycerol, 1 mM DTT). The column is washed with four volumes of equilibration buffer at a flow rate of 20 to 30 ml/h. The HSL is eluted with a volume of equilibration buffer which contains 0.5 M potassium phosphate, then dialyzed (see above) and concentrated 5 to 10 times by ultrafiltration (Amicon Diaflo PM 10 filter) at 4° C. The partially purified HSL can be stored at −70° C. for 4 to 6 weeks.
6 mg of phosphatidylcholine and 6 mg of phosphatidylinositol are dissolved in 1 ml of chloroform each. 10 mg of NAG are dissolved in 1 ml of chloroform. […] The chloroform (225 μl total volume) is completely removed by overblowing with a stream of N2. The dried substrate can be stored at 4° C. for up to three days. For the preparation of the phospholipid vesicles/micelles having intercalated NAG (on the test day), the dried substrate is taken up in 20 ml of assay buffer (25 mM TRIS/HCl, pH 7.4; 150 mM NaCl) and two ultrasonic treatments with an ultrasonic probe (Branson Sonifier type 11, standard microtip): 1st treatment setting 2, 2×1 min, in between in each case 1 min on ice; 2nd treatment setting 4, 2×1 min, in between in each case 1 min on ice. […] Before use as a substrate (within the next 2 h), the solution is additionally incubated on ice for 15 min.
The assay is carried out at 30° C. for 60 min in 1.5 ml Eppendorf vessels or 96-hole plates.

[1] = HSL 40 μg, 60 min, NAG 0.05 mg/ml
[2] = HSL 60 μg, 60 min, NAG 0.05 mg/ml
[3] = HSL 80 μg, 60 min, NAG 0.05 mg/ml

O=C(CCCCCCCCCCCNc1ccc([N+](=O)[O-])c2nonc12)OCC(O)CO (centres unmarked) [Compound (3)]
Increase in the absorption at 481 nm (HSL 40 μg, 20 min, NAG 0.05 mg/ml): 477 ± 182 arb. units
Increase in the absorption at 481 nm (HSL 40 μg, 30 min, NAG 0.05 mg/ml): 2249 ± 286 arb. units
Increase in the absorption at 481 nm (HSL 40 μg, 45 min, NAG 0.05 mg/ml): 2968 ± 321 arb. units
Absorption change, Decrease, 550 nm [1]: 91 ± 19 arb. units
Absorption change, Increase, 481 nm [1]: 4623 ± 511 arb. units
Increase in the absorption at 481 nm [1]: 4065 ± 399 arb. units
Increase in the absorption at 481 nm (HSL 40 μg, 75 min, NAG 0.05 mg/ml): 4834 ± 462 arb. units
Increase in the absorption at 481 nm (HSL 40 μg, 90 min, NAG 0.05 mg/ml): 5472 ± 813 arb. units
Increase in the absorption at 481 nm (HSL 40 μg, 120 min, NAG 0.05 mg/ml): 5702 ± 531 arb. units
Increase in the absorption at 481 nm (HSL 40 μg, 180 min, NAG 0.05 mg/ml): 5961 ± 560 arb. units
Absorption change, Decrease, 550 nm [2]: 62 ± 17 arb. units
Absorption change, Increase, 481 nm [2]: 5466 ± 602 arb. units
Absorption change, Decrease, 550 nm [3]: 54 ± 15 arb. units
Absorption change, Increase, 481 nm [3]: 5913 ± 485 arb. units
Activity relative to HSL (HSL, conditions optimized for HSL): 100%
Increase in the absorption at 481 nm (NAG 0.002 mg/ml, HSL 5 μg, 60 min): 61 ± 9 arb. units
Increase in the absorption at 481 nm (NAG 0.002 mg/ml, HSL 20 μg, 60 min): 194 ± 23 arb. units
Increase in the absorption at 481 nm (NAG 0.002 mg/ml, HSL 40 μg, 60 min): 525 ± 77 arb. units
Increase in the absorption at 481 nm (NAG 0.005 mg/ml, HSL 5 μg, 60 min): 109 ± 17 arb. units
Increase in the absorption at 481 nm (NAG 0.005 mg/ml, HSL 20 μg, 60 min): 342 ± 58 arb. units
Increase in the absorption at 481 nm (NAG 0.005 mg/ml, HSL 40 μg, 60 min): 1420 ± 122 arb. units
Increase in the absorption at 481 nm (NAG 0.01 mg/ml, HSL 5 μg, 60 min): 227 ± 31 arb. units
Increase in the absorption at 481 nm (NAG 0.01 mg/ml, HSL 20 μg, 60 min): 852 ± 77 arb. units
Increase in the absorption at 481 nm (NAG 0.01 mg/ml, HSL 40 μg, 60 min): 2745 ± 264 arb. units
Increase in the absorption at 481 nm (NAG 0.02 mg/ml, HSL 5 μg, 60 min): 388 ± 45 arb. units
Increase in the absorption at 481 nm (NAG 0.02 mg/ml, HSL 20 μg, 60 min): 1758 ± 195 arb. units
Increase in the absorption at 481 nm (NAG 0.02 mg/ml, HSL 40 μg, 60 min): 6705 ± 532 arb. units
Increase in the absorption at 481 nm (NAG 0.05 mg/ml, HSL 5 μg, 60 min): 705 ± 61 arb. units
Increase in the absorption at 481 nm (NAG 0.05 mg/ml, HSL 20 μg, 60 min): 3002 ± 409 arb. units
Increase in the absorption at 481 nm (NAG 0.05 mg/ml, HSL 40 μg, 60 min): 11547 ± 912 arb. units
Increase in the absorption at 481 nm (NAG 0.075 mg/ml, HSL 5 μg, 60 min): 1121 ± 107 arb. units
Increase in the absorption at 481 nm (NAG 0.075 mg/ml, HSL 20 μg, 60 min): 768 ± 502 arb. units
